Measured values from patent publication US11377442B2, “Small molecule agonists and antagonists of NR2F6 activity” (ZANDER THERAPEUTICS, INC., priority 2016, dated 2022).

Biological target: T1, NR2F6 (Homo sapiens, UniProt P10588)
T1 construct: expressed in transfected cells; also transient transfection
T1 sequence (P10588 1-404): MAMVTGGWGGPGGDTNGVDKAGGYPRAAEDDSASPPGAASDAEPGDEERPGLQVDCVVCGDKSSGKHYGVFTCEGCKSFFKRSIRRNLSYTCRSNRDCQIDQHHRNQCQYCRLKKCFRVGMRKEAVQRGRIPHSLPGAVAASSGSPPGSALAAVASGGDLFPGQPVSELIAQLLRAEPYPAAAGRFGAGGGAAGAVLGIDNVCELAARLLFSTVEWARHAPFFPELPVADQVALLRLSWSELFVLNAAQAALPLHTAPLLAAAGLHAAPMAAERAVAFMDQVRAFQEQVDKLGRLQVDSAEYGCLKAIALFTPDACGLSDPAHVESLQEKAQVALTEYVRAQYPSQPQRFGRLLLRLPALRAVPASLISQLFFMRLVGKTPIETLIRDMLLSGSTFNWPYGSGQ
Experiment: NR2F6 agonist screening, Firefly signal cmpd/DMSO
Type: cell-based
Conditions: for Firefly/Renilla (NR2F6 stable, clone F4): ratio Firefly/Renilla; for Firefly, NR2F6 stable (clone F4)/pGL4: ratio of Firefly in NR2F6 stable clone F4 to pGL4

[1] = C11 analogs follow set (Tables 2-10)

Structure (SMILES): COC(=O)c1ccc2oc(=O)c(S(=O)(=O)c3ccc(OC)cc3)cc2c1 [Compound C12]
- Firefly, cmpd/DMSO repeat 1 [1]: 20.0
- Firefly, cmpd/DMSO repeat 2 [1]: 16.7
- Firefly/Renilla (NR2F6 stable, clone F4) (Table 12): 2.6
- Firefly, NR2F6 stable (clone F4)/pGL4 (Table 12): 6.6
- Firefly, cmpd/DMSO repeat 1 (Table 12): 20.0
- Firefly, cmpd/DMSO repeat 2 (Table 12): 16.7

Structure (SMILES): COC(=O)c1ccc2oc(=O)c(S(=O)(=O)c3ccc(C)cc3)cc2c1 [Compound C13]
- Firefly, cmpd/DMSO repeat 1 [1]: 14.0
- Firefly, cmpd/DMSO repeat 2 [1]: 12.9
- Firefly/Renilla (NR2F6 stable, clone F4) (Table 12): 1.8
- Firefly, NR2F6 stable (clone F4)/pGL4 (Table 12): 4.2
- Firefly, cmpd/DMSO repeat 1 (Table 12): 14.0
- Firefly, cmpd/DMSO repeat 2 (Table 12): 12.9

Structure (SMILES): COC(=O)c1ccc2oc(=O)c(S(=O)(=O)c3ccc(F)cc3)cc2c1 [Compound C14]
- Firefly, cmpd/DMSO repeat 1 [1]: 22.3
- Firefly, cmpd/DMSO repeat 2 [1]: 20.0
- Firefly/Renilla (NR2F6 stable, clone F4) (Table 13): 1.5
- Firefly, NR2F6 stable (clone F4)/pGL4 (Table 13): 7.6
- Firefly, cmpd/DMSO repeat 1 (Table 13): 22.3
- Firefly, cmpd/DMSO repeat 2 (Table 13): 20.0

Structure (SMILES): COC(=O)c1ccc2oc(=O)c(S(=O)(=O)c3ccc(Cl)cc3)cc2c1 [Compound C15]
- Firefly, cmpd/DMSO repeat 1 [1]: 0.9
- Firefly, cmpd/DMSO repeat 2 [1]: 1.7

Structure (SMILES): Cc1ccc(S(=O)(=O)c2cc3ccccc3oc2=O)cc1 [Compound C100]
- Firefly, cmpd/DMSO repeat 1 [1]: 2.0
- Firefly, cmpd/DMSO repeat 2 [1]: 1.9

Structure (SMILES): COc1ccc(S(=O)(=O)c2cc3ccccc3oc2=O)cc1 [Compound C101]
- Firefly, cmpd/DMSO repeat 1 [1]: 4.5
- Firefly, cmpd/DMSO repeat 2 [1]: 4.7
- Firefly/Renilla (NR2F6 stable, clone F4) (Table 12): 2.4
- Firefly, NR2F6 stable (clone F4)/pGL4 (Table 12): 3.6
- Firefly, cmpd/DMSO repeat 1 (Table 12): 4.5
- Firefly, cmpd/DMSO repeat 2 (Table 12): 4.7

Structure (SMILES): O=c1oc2ccccc2cc1S(=O)(=O)c1ccc(Br)cc1 [Compound C102]
- Firefly, cmpd/DMSO repeat 1 [1]: 13.0
- Firefly, cmpd/DMSO repeat 2 [1]: 15.3
- Firefly/Renilla (NR2F6 stable, clone F4) (Table 12): 2.4
- Firefly, NR2F6 stable (clone F4)/pGL4 (Table 12): 5.9
- Firefly, cmpd/DMSO repeat 1 (Table 12): 13.0
- Firefly, cmpd/DMSO repeat 2 (Table 12): 15.3

Structure (SMILES): CC(C)(C)c1ccc(S(=O)(=O)c2cc3ccccc3oc2=O)cc1 [Compound C103]
- Firefly, cmpd/DMSO repeat 1 [1]: 2.8
- Firefly, cmpd/DMSO repeat 2 [1]: 1.4

Structure (SMILES): Cc1ccc(S(=O)(=O)c2cc3ccccc3oc2=O)cc1C [Compound C104]
- Firefly, cmpd/DMSO repeat 1 [1]: 3.1
- Firefly, cmpd/DMSO repeat 2 [1]: 4.4

Structure (SMILES): O=c1oc2ccccc2cc1S(=O)(=O)c1ccc(Cl)cc1 [Compound C105]
- Firefly, cmpd/DMSO repeat 1 [1]: 5.7
- Firefly, cmpd/DMSO repeat 2 [1]: 4.8
- Firefly/Renilla (NR2F6 stable, clone F4) (Table 13): 2.6
- Firefly, NR2F6 stable (clone F4)/pGL4 (Table 13): 3.1
- Firefly, cmpd/DMSO repeat 1 (Table 13): 5.7
- Firefly, cmpd/DMSO repeat 2 (Table 13): 4.8

Structure (SMILES): O=c1oc2ccccc2cc1S(=O)(=O)c1ccc(Cl)c(Cl)c1 [Compound C106]
- Firefly, cmpd/DMSO repeat 1 [1]: 1.4
- Firefly, cmpd/DMSO repeat 2 [1]: 1.3

Structure (SMILES): O=c1oc2ccccc2cc1S(=O)(=O)c1ccc(F)c(Cl)c1 [Compound C107]
- Firefly, cmpd/DMSO repeat 1 [1]: 11.0
- Firefly, cmpd/DMSO repeat 2 [1]: 11.0
- Firefly/Renilla (NR2F6 stable, clone F4) (Table 13): 1.4
- Firefly, NR2F6 stable (clone F4)/pGL4 (Table 13): 5.8
- Firefly, cmpd/DMSO repeat 1 (Table 13): 11.0
- Firefly, cmpd/DMSO repeat 2 (Table 13): 11.0

Structure (SMILES): O=c1oc2ccccc2cc1S(=O)(=O)c1ccccc1F [Compound C108]
- Firefly, cmpd/DMSO repeat 1 [1]: 7.9
- Firefly, cmpd/DMSO repeat 2 [1]: 7.3
- Firefly/Renilla (NR2F6 stable, clone F4) (Table 12): 2.6
- Firefly, NR2F6 stable (clone F4)/pGL4 (Table 12): 5.5
- Firefly, cmpd/DMSO repeat 1 (Table 12): 7.9
- Firefly, cmpd/DMSO repeat 2 (Table 12): 7.3

Structure (SMILES): O=c1oc2ccccc2cc1S(=O)(=O)c1cccc(Cl)c1 [Compound C109]
- Firefly, cmpd/DMSO repeat 1 [1]: 9.2
- Firefly, cmpd/DMSO repeat 2 [1]: 10.3
- Firefly/Renilla (NR2F6 stable, clone F4) (Table 13): 2.9
- Firefly, NR2F6 stable (clone F4)/pGL4 (Table 13): 2.9
- Firefly, cmpd/DMSO repeat 1 (Table 13): 9.2
- Firefly, cmpd/DMSO repeat 2 (Table 13): 10.3

Structure (SMILES): Cc1cc(S(=O)(=O)c2cc3ccccc3oc2=O)ccc1F [Compound C110]
- Firefly, cmpd/DMSO repeat 1 [1]: 7.6
- Firefly, cmpd/DMSO repeat 2 [1]: 7.2
- Firefly/Renilla (NR2F6 stable, clone F4) (Table 12): 3.3
- Firefly, NR2F6 stable (clone F4)/pGL4 (Table 12): 3.9
- Firefly, cmpd/DMSO repeat 1 (Table 12): 7.6
- Firefly, cmpd/DMSO repeat 2 (Table 12): 7.2
